For one assay, the target named is E. coli β-galactosidase (Escherichia coli, UniProt P00722). The assay is classed as biochemical. The conditions noted are these: in the presence of β-galactosidase, 60-90 minutes, 37° C., pH 7.2 (phosphate buffer). As for the experimental part: FIG. 1. A drawing illustrating the effect of the prodrug 1a 1 μmole was treated with 2 units of E. coli β galactosidase enzyme and the progress of the hydrolysis was monitored by reverse phase HPLC. HPLC conditions: C18 Reverse phase column. Mobile phase 40:60 CH3CN/ H2O, flow rate of 1 ml/ min. UV detection: wave length 254 nm.
E. coli β-galactosidase, sequence (P00722 2-1024): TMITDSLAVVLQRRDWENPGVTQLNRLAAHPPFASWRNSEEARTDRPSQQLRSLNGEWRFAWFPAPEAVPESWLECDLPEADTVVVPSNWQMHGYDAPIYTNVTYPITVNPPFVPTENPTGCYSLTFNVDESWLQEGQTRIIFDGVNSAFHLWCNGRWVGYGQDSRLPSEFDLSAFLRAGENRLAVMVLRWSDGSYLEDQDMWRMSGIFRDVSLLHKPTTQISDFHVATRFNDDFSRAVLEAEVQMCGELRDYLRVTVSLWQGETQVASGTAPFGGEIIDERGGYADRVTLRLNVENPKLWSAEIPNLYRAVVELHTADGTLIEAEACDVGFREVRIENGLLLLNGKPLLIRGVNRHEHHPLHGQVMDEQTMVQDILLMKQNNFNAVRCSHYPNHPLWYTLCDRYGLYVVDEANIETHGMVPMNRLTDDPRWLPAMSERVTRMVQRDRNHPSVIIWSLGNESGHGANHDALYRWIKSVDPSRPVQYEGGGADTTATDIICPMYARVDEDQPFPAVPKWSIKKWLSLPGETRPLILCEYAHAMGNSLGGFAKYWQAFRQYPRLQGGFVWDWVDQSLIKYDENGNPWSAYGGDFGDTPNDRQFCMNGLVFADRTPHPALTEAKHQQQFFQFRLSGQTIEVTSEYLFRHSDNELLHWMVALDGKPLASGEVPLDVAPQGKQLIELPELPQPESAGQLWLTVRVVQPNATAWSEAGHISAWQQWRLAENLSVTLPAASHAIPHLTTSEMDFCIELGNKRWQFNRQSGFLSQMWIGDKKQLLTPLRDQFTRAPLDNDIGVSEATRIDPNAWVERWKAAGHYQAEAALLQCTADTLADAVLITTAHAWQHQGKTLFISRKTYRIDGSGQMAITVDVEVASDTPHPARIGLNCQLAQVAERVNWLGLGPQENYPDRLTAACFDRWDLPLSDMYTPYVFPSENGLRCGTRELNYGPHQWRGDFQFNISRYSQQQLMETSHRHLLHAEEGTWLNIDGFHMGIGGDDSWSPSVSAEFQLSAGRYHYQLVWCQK
The prodrug 1a 1 μmole was treated with 2 units of E. coli β galactosidase enzyme and the progress of the hydrolysis was monitored by reverse phase HPLC. The results are presented in the form of a graph as illustrated in FIG. 1. Biological Studies Of The Prodrugs

Another assay relates to HepG2 cells. Description: Cell cycle progression by FACS (subG1 and G2/M population) in HepG2 cells. It is filed as cell-based, human. The text has this:
(§1) The cytotoxic effects of the newly synthesized compounds 1a and 1b and their respective PBD imines were examined by cell cycle progression experiments on human tumor cells, by using fluorescence-activated cell sorting (FACS) analysis, in the absence and in the presence of β-galactosidase enzyme. In the primary flow cytometric study, the DNA content of the cells was used as a major determinant for cell count. The subG1 population, a conspicuous indicator for cell death, presumably apoptosis, and G2/M population was also determined in HepG2 and A375 cell lines.
Next we evaluated the prodrugs for their activation efficiency by intracellular β-galactosidase, in human liver cancer, HepG2 cells.
(In general: A flow cytometer gives signals particle by particle.)

The next assay has as its system A375 cells. Briefly: Cell cycle progression by FACS (subG1 and G2/M population) in A375 cells. To be noted: 1a 42 μM, 1b 23.4 μM. It is filed as cell-based, human.
Description: as §1

Consider one compound from patent publication US7754694B2, “Pyrrolo[2, 1-C][1, 4]benzodiazepine-glycoside prodrug useful as a selective anti tumor agent” (priority 2007, dated 2010).

For the compound `COc1cc2c(cc1OCCCOc1cc3c(cc1OC)C(=O)N1CCC[C@H]1[C@H](O)N3C(=O)OCc1ccc(O[C@@H]3O[C@H](CO)[C@H](O)[C@H](O)[C@H]3O)c([N+](=O)[O-])c1)N(C(=O)OCc1ccc(O[C@@H]3O[C@H](CO)[C@H](O)[C@H](O)[C@H]3O)c([N+](=O)[O-])c1)[C@@H](O)[C@@H]1CCCN1C2=O` [Compound 1b, 1,1′-[[(propane-1,3-diyl)dioxy]-bis(11S,11aS)-10-(4-β-D -galactopyranosyloxy-3-nitrophenyl)methoxycarbonyl-11-hydroxy-7-methoxy-1,2,3,-10,11,11a-hexahydro-5H-pyrrolo[2,1-c][1,4]-benzodiazepin-5-one]], the “activation of the prodrug by β-galactosidase” value on E. coli β-galactosidase is listed as “activated to their corresponding carbinolamines”. The “cytometric profile / apoptotic response in HepG2 cells in the presence of E. coli β-galactosidase” value in the assay on HepG2 cells (HepG2, with added E. coli β-galactosidase) is “profile comparable to that of the parent drug 6b”. Further, in the assay on HepG2 cells (HepG2, without added enzyme (intracellular β-galactosidase)), the “cytometric profile / apoptotic response in HepG2 cells in the absence of E. coli β-galactosidase” value is reported as “block in the G2/M phase of the cell cycle”. Also, in the assay on A375 cells (A375, with E. coli β-galactosidase), the “apoptosis / cell death in A375 cells with E. coli β-galactosidase” value was “apoptosis identical to that of the parent drugs 6a and 6b respectively”. Also, the “amount of cell death in A375 cells in the absence of the enzyme” value with A375 cells (A375, without β-galactosidase) is given as “insignificant”.
